The NIST ThermoML archive (doi:10.1016/j.jct.2019.06.028)
Numbers after ± are expanded uncertainties.

Experiments:
[1] = xn = mol fraction of the nth substance listed; settings: 101 kPa, Liquid, Vibrating tube method
[2] = 101 kPa, Liquid, Vibrating tube method

O [water] + CC(N)=O
[1], x2 = 0
Settings	mass density [kg/m3]
278.15 K	999.96 ± 0.09
323.15 K	988.03 ± 0.09

O [water]
[2]
Settings	mass density [kg/m3]
278.15 K	999.96 ± 0.09
323.15 K	988.03 ± 0.09

CC(N)=O [ethanamide] + O
mass density [kg/m3], [1]
Settings	278.15 K	288.15 K	298.15 K	308.15 K	323.15 K
x1 = 0.0045	1001.13 ± 0.09	1000.13 ± 0.09	997.95 ± 0.09	994.84 ± 0.09	988.72 ± 0.09
x1 = 0.00696	1001.77 ± 0.09	1000.68 ± 0.09	998.45 ± 0.09	995.28 ± 0.09	989.09 ± 0.09
x1 = 0.01255	1003.21 ± 0.09	1001.93 ± 0.09	999.55 ± 0.09	996.27 ± 0.09	989.94 ± 0.09
x1 = 0.0221	1005.68 ± 0.09	1004.08 ± 0.09	1001.45 ± 0.09	997.97 ± 0.09	991.4 ± 0.09
x1 = 0.03704	1009.47 ± 0.09	1007.37 ± 0.09	1004.39 ± 0.09	1000.6 ± 0.09	993.65 ± 0.09
x1 = 0.04992	1012.61 ± 0.09	1010.12 ± 0.09	1006.82 ± 0.09	1002.79 ± 0.09	995.48 ± 0.09
x1 = 0.0607	1015.11 ± 0.12	1012.3 ± 0.12	1008.75 ± 0.12	1004.54 ± 0.12	996.95 ± 0.12
x1 = 0.07958	1019.24 ± 0.12	1015.92 ± 0.12	1011.95 ± 0.12	1007.37 ± 0.12	999.36 ± 0.12
x1 = 0.09463	1022.32 ± 0.12	1018.65 ± 0.12	1014.35 ± 0.12	1009.49 ± 0.12	1001.16 ± 0.12
x1 = 0.1128	1025.82 ± 0.26	1021.71 ± 0.25	1017.06 ± 0.24	1011.89 ± 0.23	1003.22 ± 0.23
x1 = 0.1325	1029.34 ± 0.25	1024.81 ± 0.24	1019.79 ± 0.23	1014.32 ± 0.23	1005.31 ± 0.22
x1 = 0.159	1033.54 ± 0.24	1028.5 ± 0.23	1023.07 ± 0.23	1017.25 ± 0.22	1007.78 ± 0.22
x1 = 0.1991	1038.57 ± 0.23	1032.99 ± 0.23	1027.09 ± 0.22	1020.83 ± 0.22	1010.87 ± 0.22
x1 = 0.2503	1043.75 ± 0.23	1037.61 ± 0.22	1031.18 ± 0.22	1024.52 ± 0.22	1013.96 ± 0.22
x1 = 0.3039	–	1041.06 ± 0.22	1034.29 ± 0.22	1027.28 ± 0.22	1016.34 ± 0.22
x1 = 0.3456	–	1043.19 ± 0.23	1036.18 ± 0.22	1028.97 ± 0.22	1017.76 ± 0.22
x1 = 0.3875	–	–	1037.52 ± 0.23	1030.2 ± 0.22	1018.81 ± 0.22
